Target: Dual specificity tyrosine-phosphorylation-regulated kinase 1B (DYRK1B) (Homo sapiens, UniProt Q9Y463)
Experiment: DiscoverX competition binding assay (DNA-tagged kinase, 11-point Kd); also enzyme inhibition IC50 […] at […] ATP

Dual specificity tyrosine-phosphorylation-regulated kinase 1B (DYRK1B), sequence (Q9Y463 whole entry): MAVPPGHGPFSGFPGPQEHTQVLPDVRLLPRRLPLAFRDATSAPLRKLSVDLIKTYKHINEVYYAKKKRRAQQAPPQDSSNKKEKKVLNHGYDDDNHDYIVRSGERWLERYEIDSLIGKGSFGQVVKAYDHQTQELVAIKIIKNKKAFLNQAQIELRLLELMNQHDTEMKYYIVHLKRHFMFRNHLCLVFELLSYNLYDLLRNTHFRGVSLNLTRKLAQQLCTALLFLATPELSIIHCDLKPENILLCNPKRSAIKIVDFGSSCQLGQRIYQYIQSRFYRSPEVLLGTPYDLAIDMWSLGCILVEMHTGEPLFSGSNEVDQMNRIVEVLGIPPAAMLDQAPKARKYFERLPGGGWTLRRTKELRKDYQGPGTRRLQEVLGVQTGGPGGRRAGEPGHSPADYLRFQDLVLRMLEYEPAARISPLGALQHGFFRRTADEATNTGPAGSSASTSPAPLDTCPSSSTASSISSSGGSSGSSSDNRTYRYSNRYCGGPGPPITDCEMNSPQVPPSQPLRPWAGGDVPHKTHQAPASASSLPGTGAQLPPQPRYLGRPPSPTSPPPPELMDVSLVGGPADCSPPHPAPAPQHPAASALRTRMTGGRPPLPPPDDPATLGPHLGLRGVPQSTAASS

COC(=O)Nc1nc2ccc(C(=O)c3ccccc3)cc2[nH]1 [MBZ, mebendazole] gave a Kd of 7 nM.
